{
  "source": "patent US20230346716A1",
  "about": "“TREATMENT OF SKIN DISORDERS WITH TOPICAL TAPINAROF COMPOSITIONS” (Sol-Gel Technologies Ltd., priority 2019, published 2023)",
  "key": {"[1]": {"details": "as a single drug, psoriasis treatment; placebo 20.2%; cited from earlier work"}, "[2]": {"tested_on": "experimentally induced psoriasis in normal human skin grafted onto beige-SCID mice", "assay": "Study 1: histology of human skin xenograft psoriasis model in beige-SCID mice", "type": "in vivo", "details": "for Mean Epidermal Thickness: topical 14 days, grafts excised Day 56, mean ± SD", "text": "(§1) The objective of this study was to determine the efficacy of tapinarof composition as described in Example 8 compared to the vehicle and Dexamethasone as shown below. The evaluation was based on histology analysis following application of the respective test formulations.\n(§2) In this model, a psoriasis phenotype is induced in normal skin grafted onto beige-severe combined immunodeficient mice by intradermal injection of natural killer/T-cells derived from psoriatic patients (Gilhar et al., Psoriasis is mediated by a cutaneous defect triggered by activated immunocytes: induction of psoriasis by cells with natural killer receptors, J. Invest. Dermatol. 2002 August; 119(2):384-91).\n(§3) In order to address the aim of the experiment, the psoriatic humanized mice were established Additionally, 10 psoriatic patients were recruited (six males and four females), ranging from 21 to 66 years (mean age 45 years). All patients had classic plaque psoriasis. Normal skin from one healthy volunteer was obtained for grafting.\n(§4) The efficacy study has been conducted on female mice. The total duration of the experiment was 8 weeks, upon receiving of the human skin. Normal skin from healthy volunteers were obtained for grafting. Healthy human abdominal skin pieces with a width of 0.4 mm and surface area of 1.5×1.5 cm were provided. The skin sample was preserved in isotonic saline solution and transplanted within 6-12 hours after skin donation. In addition, blood samples were collected from psoriatic patients having classic plaque psoriasis and not undergoing any treatment. 20 mL blood samples were taken from both males and females psoriatic patients (from psoriatic patients having classic plaque psoriasis and not undergoing any treatment), and peripheral blood mononuclear cells (PBMC) were separated immediately after blood withdrawal.\n(§5) Mice: Beige-severe combined immunodeficient mice C.B-17/IcrHsdscid-bg (beige-SCID) mice (weight ˜25 g) were included in this study. Mice were monitored twice a week for vital signs such as weight, food intake, coat, eyes, anal genital areas, discharge/soiling, behavior and criteria related to skin transplantation. Normal healthy human donor skin were transplanted onto the beige-SCID mice as previously described (See Keren A. et al., Novel nanosome delivery system combined with siRNA targeting the antimicrobial gene DFB4: a new approach for psoriasis management? ExpDermatol. 2014; 23:464-465; Bracke S. et a/., Targeted silencing of DEFB4 in a bioengineered skin-humanized mouse model for psoriasis: development of siRNA SECosome-based novel therapies. ExpDermatol. 2014; 23:199-201; Zaretsky M. et al., Directed evolution of a soluble human IL-17A receptor for the inhibition of psoriasis plaque formation in a mouse model. Chem Biol. 2013 21; 20:202-2; Gilhar A. et al., The beneficial effect of blocking Kv1.3 in the psoriasiform SCID mouse model. J Invest Dermatol. 2011; 131:118 124; Keren A. et al., Innate lymphoid cells 3 induce psoriasis in xenotransplanted healthy human skin. J Allergy Clin Immunol. 2018; 142:305-308.e6).\n(§6) British Journal of Pharmacology 2010; 159:842-855).\n(§7) Four weeks following the engraftment, each mouse was injected (intradermally) with 1×10^7 IL-2 enriched allogeneic PBMC's from psoriatic patients (1×10^7 cells injected/mouse). Cells from different psoriasis patients were equally distributed between treatment groups. Each patient was represented in each treatment group.\n(§8) Fourteen days following cells injections, the mice were divided into treatment groups (Table 1, see below) and treated according to the timeline indicated below (see Scheme 1). Each transplant was equally topically treated (50 μg) by using a sterile spatula.\n(§9) Dexamethasone (D2915, Sigma): was freshly prepared for each administration by dilution in saline to final concentration (50 mg/ml). […]"}, "[3]": {"tested_on": "experimentally induced psoriasis in normal human skin grafted onto beige-SCID mice", "assay": "Study 2: histology of human skin xenograft psoriasis model in beige-SCID mice", "type": "in vivo", "set-up": "Mean Epidermal Thickness: unit not given here", "text": "as §1, §2, §3, §4, §5, §6, §7, §8, §9"}, "[4]": {"tested_on": "HBD2, Psoriasin (S100A7), CD4, CD8, IL-17, IL-22", "assay": "Study 2: immunohistochemical markers for psoriasis in human xenotransplants", "type": "in vivo, beige-SCID mice", "details": "immunohistochemistry of xenotransplants"}, "[5]": {"details": "histological evaluation of human skin grafts"}},
  "data": [
    {"smiles": "C=C1/C(=C\\C=C2/CCC[C@]3(C)[C@@H]([C@H](C)/C=C/[C@@H](O)C4CC4)CC[C@@H]23)C[C@@H](O)C[C@@H]1O", "note": "[calcipotriene]", "values": [
      {"measurement": "adverse effects", "setting": "[1]", "value": 19.5, "unit": "%"}
    ]},
    {"smiles": "C[C@@H]1C[C@H]2[C@@H]3CCC4=CC(=O)C=C[C@]4(C)[C@@]3(F)[C@@H](O)C[C@]2(C)[C@@]1(O)C(=O)CO", "note": "[Dexamethasone]", "values": [
      {"measurement": "Partial Recovery (percent of grafts)", "setting": "[2]", "value": "(10%)"},
      {"measurement": "Psoriatic Features (percent of grafts)", "setting": "[2]", "value": "(0%)"},
      {"measurement": "Baker score: Agranulosis - hypogranulosis", "setting": "[2]; average ± SD", "value": "0.1 ± 0.3"},
      {"measurement": "Baker score: Blood vessels (tortuosity, elongation)", "setting": "[2]; average ± SD", "value": "0.05 ± 0.1"},
      {"measurement": "Baker score: Epidermal thickening (acanthosis)", "setting": "[2]; average ± SD", "value": "0.05 ± 0.1"},
      {"measurement": "Baker score: Hyperkeratosis", "setting": "[2]; average ± SD", "value": "0.05 ± 0.1"},
      {"measurement": "Baker score: Mononuclear cells infiltrate in the papillary dermis", "setting": "[2]; average ± SD", "value": "0.2 ± 0.6"},
      {"measurement": "Baker score: Munro micro abscess", "setting": "[2]; average ± SD", "value": "0 ± 0"},
      {"measurement": "Baker score: Parakeratosis", "setting": "[2]; average ± SD", "value": "0.1 ± 0.3"},
      {"measurement": "Baker score: Regular/abnormal elongation of rete ridges", "setting": "[2]; average ± SD", "value": "0.1 ± 0.4"},
      {"measurement": "Baker score: Suprapapillary epidermal thinning", "setting": "[2]; average ± SD", "value": "0.05 ± 0.1"},
      {"measurement": "Histological Scoring (Baker system), Total Score", "setting": "[2]; average ± SD", "value": "0.7 ± 1.9"},
      {"measurement": "Complete Recovery (grafts/total grafts)", "setting": "[2]; [5]", "value": "9/10"},
      {"measurement": "Partial Recovery (grafts/total grafts)", "setting": "[2]; [5]", "value": "1/10"},
      {"measurement": "Psoriatic Features (grafts/total grafts)", "setting": "[2]; [5]", "value": "0/10"},
      {"measurement": "Mean Epidermal Thickness", "setting": "[2]", "value": "254±59", "unit": "μm"},
      {"measurement": "Mean Epidermal Thickness", "setting": "[2]; listed as Dexamethasone 2 mg", "value": "254 ± 59", "unit": "μm"},
      {"measurement": "Proliferation index (%)", "setting": "[3]", "value": "6 ± 2", "unit": "%"},
      {"measurement": "Baker score: Agranulosis - hypogranulosis", "setting": "[3]; average ± SD", "value": "0.1 ± 0.3"},
      {"measurement": "Baker score: Blood vessels (tortuosity, elongation)", "setting": "[3]; average ± SD", "value": "0.05 ± 0.1"},
      {"measurement": "Baker score: Epidermal thickening (acanthosis)", "setting": "[3]; average ± SD", "value": "0.05 ± 0.1"},
      {"measurement": "Baker score: Hyperkeratosis", "setting": "[3]; average ± SD", "value": "0 ± 0"},
      {"measurement": "Baker score: Mononuclear cells infiltrate in the papillary dermis", "setting": "[3]; average ± SD", "value": "0 ± 0"},
      {"measurement": "Baker score: Munro micro abscess", "setting": "[3]; average ± SD", "value": "0 ± 0"},
      {"measurement": "Baker score: Parakeratosis", "setting": "[3]; average ± SD", "value": "0 ± 0"},
      {"measurement": "Baker score: Regular/abnormal elongation of rete ridges", "setting": "[3]; average ± SD", "value": "0 ± 0"},
      {"measurement": "Baker score: Suprapapillary epidermal thinning", "setting": "[3]; average ± SD", "value": "0.05 ± 0.1"},
      {"measurement": "Histological Scoring (Baker system), Total Score", "setting": "[3]; average ± SD", "value": "0.25 ± 0.8"},
      {"measurement": "Complete Recovery (grafts/total grafts)", "setting": "[3]; [5]", "value": "10/10"},
      {"measurement": "Partial Recovery (grafts/total grafts)", "setting": "[3]; [5]", "value": "0/10"},
      {"measurement": "Psoriatic Features (grafts/total grafts)", "setting": "[3]; [5]", "value": "0/10"},
      {"measurement": "Mean Epidermal Thickness", "setting": "[3]; mean ± SD", "value": "193 ± 71"},
      {"measurement": "CD4", "setting": "[4]", "value": "0.5 ± 0.8", "unit": "Cells per 0.66 mm^2"},
      {"measurement": "CD8", "setting": "[4]", "value": "0.6 ± 0.6", "unit": "Cells per 0.66 mm^2"},
      {"measurement": "HBD2 (Integrated intensity, %)", "setting": "[4]", "value": "5.8 ± 0.9", "unit": "%"},
      {"measurement": "IL-17", "setting": "[4]", "value": "0.6 ± 0.9^ Cells per 0.66 mm^2"},
      {"measurement": "IL-22", "setting": "[4]", "value": "0.4 ± 0.8", "unit": "Cells per 0.66 mm^2"},
      {"measurement": "Psoriasin (S100A7) (Integrated intensity, %)", "setting": "[4]", "value": "6.6 ± 2.1", "unit": "%"}
    ]},
    {"smiles": "CC(C)c1c(O)cc(/C=C/c2ccccc2)cc1O", "note": "[Tapinarof, 3,5-dihydroxy-4-isopropyl-trans-stilbene]", "values": [
      {"measurement": "adverse effects", "setting": "[1]", "value": 44.5, "unit": "%"}
    ]}
  ]
}
